In publication PMC11233931, “Remodeling tumor‐associated macrophage for anti‐cancer effects by rational design of irreversible inhibition of mitogen‐activated protein kinase‐activated protein kinase 2” (MedComm, 2024):

Tests used:
Test in all cases: Eurofins kinase selectivity profile against 380 other human recombinant kinases (Table S2)
Type in all cases: biochemical
[1] = target: T1, 380 human recombinant protein kinases (Homo sapiens, UniProt P06241); conditions: Fyn(h), read-out: Inhibition rate
T1 construct: purchased Eurofins (Celle Lévescault)
Procedure, shortened: (§1)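 Values come from a contract kinase-profiling service that tested the compound at multiple concentrations across 380 recombinant human kinases, as an off-target check against the MK2 activity.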

[2] = target: T2, 380 human recombinant protein kinases (Homo sapiens, UniProt Q5S007); conditions: LRRK2(h), read-out: Inhibition rate
T2 construct: purchased Eurofins (Celle Lévescault)
Procedure, shortened: as §1

[3] = target: T3, 380 human recombinant protein kinases (Homo sapiens, UniProt Q9P2K8); conditions: GCN2(h), read-out: Inhibition rate
T3 construct: purchased Eurofins (Celle Lévescault)
Procedure, shortened: as §1

[4] = target: T4, 380 human recombinant protein kinases (Homo sapiens, UniProt P42680); conditions: Tec(h) activated, read-out: Inhibition rate (%)
T4 construct: purchased Eurofins (Celle Lévescault)
T4 sequence (P42680 1-631): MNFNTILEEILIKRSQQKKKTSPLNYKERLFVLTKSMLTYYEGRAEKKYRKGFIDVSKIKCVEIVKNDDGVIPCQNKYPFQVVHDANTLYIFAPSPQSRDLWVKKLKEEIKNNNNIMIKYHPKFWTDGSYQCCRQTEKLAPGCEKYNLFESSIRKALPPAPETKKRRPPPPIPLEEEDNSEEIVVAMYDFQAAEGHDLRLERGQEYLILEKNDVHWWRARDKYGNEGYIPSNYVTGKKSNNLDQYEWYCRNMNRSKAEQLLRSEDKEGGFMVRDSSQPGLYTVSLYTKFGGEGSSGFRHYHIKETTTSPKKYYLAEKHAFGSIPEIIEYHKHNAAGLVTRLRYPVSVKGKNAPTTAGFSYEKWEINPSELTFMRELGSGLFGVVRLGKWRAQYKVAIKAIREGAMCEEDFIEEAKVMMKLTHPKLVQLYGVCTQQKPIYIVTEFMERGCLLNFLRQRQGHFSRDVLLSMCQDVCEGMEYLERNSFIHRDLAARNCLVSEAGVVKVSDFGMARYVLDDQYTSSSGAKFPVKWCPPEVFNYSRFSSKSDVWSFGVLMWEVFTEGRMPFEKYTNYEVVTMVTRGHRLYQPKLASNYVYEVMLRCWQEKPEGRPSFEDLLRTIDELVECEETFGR
Procedure, shortened: as §1

[5] = target: T5, 380 human recombinant protein kinases (Homo sapiens, UniProt Q8IY84); conditions: NIM1(h), read-out: Inhibition rate
T5 construct: purchased Eurofins (Celle Lévescault)
Procedure, shortened: as §1

[6] = target: T6, 380 human recombinant protein kinases (Homo sapiens, UniProt Q15835); conditions: GRK1(h), read-out: Inhibition rate
T6 construct: purchased Eurofins (Celle Lévescault)
T6 sequence (Q15835 1-563): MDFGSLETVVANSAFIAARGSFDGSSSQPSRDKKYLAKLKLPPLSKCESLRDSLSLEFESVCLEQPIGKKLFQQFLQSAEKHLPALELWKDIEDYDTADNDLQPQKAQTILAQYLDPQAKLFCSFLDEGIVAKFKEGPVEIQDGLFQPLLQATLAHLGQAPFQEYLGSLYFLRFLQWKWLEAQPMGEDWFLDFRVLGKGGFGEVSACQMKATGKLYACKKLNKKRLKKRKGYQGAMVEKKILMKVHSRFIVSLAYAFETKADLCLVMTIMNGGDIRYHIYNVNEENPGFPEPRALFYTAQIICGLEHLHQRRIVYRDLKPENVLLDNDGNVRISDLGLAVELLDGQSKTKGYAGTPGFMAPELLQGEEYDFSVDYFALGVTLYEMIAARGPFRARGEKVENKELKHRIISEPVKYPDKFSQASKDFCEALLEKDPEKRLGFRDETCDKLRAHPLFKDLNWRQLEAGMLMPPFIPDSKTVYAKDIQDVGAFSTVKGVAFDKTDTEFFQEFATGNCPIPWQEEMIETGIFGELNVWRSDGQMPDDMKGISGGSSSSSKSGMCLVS
Procedure, shortened: as §1

[7] = target: T7, 380 human recombinant protein kinases (Homo sapiens, UniProt Q9NYV4); conditions: CDK12/cyclinK(h), read-out: Inhibition rate
T7 construct: purchased Eurofins (Celle Lévescault)
Procedure, shortened: as §1

[8] = target: T8, 380 human recombinant protein kinases (Homo sapiens, UniProt O75116); conditions: ROCK-II(h), read-out: Inhibition rate
T8 construct: purchased Eurofins (Celle Lévescault)
Procedure, shortened: as §1

[9] = target: T9, 380 human recombinant protein kinases (Homo sapiens, UniProt Q9Y4K4); conditions: MAP4K5(h), read-out: Inhibition rate
T9 construct: purchased Eurofins (Celle Lévescault)
Procedure, shortened: as §1

[10] = target: T10, 380 human recombinant protein kinases (Homo sapiens, UniProt Q16584); conditions: MLK3(h), read-out: Inhibition rate
T10 construct: purchased Eurofins (Celle Lévescault)
Procedure, shortened: as §1

T1 sequence (P06241 whole entry): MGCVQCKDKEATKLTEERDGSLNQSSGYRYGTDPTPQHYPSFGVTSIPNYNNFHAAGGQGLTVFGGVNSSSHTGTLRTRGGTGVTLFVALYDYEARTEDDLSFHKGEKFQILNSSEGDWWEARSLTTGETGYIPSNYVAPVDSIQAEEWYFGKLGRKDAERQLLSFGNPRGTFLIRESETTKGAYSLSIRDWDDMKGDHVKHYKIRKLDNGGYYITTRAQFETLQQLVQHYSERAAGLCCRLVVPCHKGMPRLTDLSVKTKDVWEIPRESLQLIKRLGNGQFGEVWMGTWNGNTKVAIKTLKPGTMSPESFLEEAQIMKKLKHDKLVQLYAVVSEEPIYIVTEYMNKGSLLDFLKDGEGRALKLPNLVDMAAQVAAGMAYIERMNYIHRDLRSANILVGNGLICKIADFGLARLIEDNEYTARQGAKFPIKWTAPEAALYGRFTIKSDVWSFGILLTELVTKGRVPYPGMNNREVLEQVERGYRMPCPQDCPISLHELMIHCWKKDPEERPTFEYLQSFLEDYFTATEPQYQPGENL
T2 sequence (Q5S007 whole entry): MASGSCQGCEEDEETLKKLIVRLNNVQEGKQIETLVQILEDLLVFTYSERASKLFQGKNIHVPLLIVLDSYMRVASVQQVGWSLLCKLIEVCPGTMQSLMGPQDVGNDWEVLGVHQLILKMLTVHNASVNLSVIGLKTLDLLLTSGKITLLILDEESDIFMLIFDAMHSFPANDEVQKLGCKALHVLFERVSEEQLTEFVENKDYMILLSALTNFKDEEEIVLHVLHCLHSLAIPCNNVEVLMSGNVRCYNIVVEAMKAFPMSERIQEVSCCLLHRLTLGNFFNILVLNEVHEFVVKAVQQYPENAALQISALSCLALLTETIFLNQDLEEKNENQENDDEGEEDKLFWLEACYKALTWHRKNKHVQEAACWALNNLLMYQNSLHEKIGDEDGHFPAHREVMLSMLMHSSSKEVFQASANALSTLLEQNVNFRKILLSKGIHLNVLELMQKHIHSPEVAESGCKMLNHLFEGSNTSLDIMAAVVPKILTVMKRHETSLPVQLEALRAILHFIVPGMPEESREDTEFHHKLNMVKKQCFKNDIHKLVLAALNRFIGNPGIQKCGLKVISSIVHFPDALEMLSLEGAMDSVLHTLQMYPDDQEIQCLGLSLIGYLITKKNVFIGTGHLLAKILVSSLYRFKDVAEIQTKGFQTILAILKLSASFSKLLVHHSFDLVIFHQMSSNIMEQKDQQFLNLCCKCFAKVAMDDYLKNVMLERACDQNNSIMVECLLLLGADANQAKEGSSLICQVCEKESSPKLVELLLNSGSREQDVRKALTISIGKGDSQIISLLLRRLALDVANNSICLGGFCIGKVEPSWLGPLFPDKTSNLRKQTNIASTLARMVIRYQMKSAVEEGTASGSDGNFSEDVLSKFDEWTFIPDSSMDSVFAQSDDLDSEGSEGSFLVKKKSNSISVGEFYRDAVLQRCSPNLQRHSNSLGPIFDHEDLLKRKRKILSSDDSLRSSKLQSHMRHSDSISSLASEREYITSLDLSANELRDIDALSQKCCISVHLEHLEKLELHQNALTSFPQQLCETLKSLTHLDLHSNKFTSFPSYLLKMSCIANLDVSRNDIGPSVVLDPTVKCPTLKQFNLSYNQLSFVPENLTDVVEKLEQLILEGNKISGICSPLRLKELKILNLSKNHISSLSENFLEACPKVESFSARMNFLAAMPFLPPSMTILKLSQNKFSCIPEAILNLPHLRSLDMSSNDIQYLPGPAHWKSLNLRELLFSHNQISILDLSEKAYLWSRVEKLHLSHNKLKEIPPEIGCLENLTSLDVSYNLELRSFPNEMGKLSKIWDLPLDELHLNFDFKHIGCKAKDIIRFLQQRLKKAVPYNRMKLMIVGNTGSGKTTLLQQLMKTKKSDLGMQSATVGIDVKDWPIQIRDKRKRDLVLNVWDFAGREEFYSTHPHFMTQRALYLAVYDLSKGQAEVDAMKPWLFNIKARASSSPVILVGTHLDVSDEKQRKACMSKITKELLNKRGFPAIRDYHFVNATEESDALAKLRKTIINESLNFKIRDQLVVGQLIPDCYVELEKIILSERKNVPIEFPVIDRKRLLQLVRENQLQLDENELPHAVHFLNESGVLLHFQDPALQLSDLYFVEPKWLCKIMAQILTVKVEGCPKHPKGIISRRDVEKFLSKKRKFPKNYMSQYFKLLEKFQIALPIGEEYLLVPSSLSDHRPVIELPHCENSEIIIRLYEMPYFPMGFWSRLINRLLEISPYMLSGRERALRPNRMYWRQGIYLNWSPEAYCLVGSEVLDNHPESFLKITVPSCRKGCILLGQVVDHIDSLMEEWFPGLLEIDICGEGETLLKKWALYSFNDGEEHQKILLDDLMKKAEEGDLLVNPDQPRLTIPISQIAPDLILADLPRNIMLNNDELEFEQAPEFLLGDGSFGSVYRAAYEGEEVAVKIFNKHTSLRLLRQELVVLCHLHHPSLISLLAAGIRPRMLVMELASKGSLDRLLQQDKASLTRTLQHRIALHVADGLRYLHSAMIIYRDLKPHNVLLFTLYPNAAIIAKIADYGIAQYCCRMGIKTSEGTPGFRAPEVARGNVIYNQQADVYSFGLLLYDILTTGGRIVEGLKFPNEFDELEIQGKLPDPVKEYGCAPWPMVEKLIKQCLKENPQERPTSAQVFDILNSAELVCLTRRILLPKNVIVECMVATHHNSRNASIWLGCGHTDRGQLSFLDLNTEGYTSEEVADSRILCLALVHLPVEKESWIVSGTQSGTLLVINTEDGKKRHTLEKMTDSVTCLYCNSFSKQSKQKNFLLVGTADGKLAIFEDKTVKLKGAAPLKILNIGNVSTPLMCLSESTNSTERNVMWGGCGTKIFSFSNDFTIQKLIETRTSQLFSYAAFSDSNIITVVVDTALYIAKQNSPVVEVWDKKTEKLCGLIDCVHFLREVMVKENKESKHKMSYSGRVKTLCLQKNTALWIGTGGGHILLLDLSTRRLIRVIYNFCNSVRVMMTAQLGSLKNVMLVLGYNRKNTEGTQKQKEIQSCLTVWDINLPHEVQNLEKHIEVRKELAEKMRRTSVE
T9 sequence (Q9Y4K4 whole entry): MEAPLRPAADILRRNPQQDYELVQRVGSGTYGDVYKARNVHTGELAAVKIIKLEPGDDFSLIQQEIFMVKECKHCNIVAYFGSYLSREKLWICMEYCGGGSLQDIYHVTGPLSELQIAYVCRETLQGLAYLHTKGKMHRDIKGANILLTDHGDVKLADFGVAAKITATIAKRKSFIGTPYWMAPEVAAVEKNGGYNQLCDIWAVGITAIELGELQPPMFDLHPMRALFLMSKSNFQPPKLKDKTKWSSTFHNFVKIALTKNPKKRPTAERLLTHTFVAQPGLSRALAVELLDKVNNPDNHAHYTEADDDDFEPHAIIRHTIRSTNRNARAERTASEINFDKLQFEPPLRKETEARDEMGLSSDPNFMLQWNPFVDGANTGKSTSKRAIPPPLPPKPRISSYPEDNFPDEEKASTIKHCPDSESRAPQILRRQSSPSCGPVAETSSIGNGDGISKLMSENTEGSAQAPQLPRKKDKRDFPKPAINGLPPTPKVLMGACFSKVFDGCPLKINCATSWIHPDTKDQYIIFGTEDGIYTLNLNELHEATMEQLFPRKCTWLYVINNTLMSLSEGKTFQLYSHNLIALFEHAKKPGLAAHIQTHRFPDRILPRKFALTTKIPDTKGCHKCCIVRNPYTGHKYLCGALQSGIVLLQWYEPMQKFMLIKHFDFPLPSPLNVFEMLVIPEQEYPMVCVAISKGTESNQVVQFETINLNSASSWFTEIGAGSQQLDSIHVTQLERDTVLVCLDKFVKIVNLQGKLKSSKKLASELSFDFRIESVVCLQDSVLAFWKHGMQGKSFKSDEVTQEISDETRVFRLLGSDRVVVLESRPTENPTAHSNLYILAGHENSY
T10 sequence (Q16584 whole entry): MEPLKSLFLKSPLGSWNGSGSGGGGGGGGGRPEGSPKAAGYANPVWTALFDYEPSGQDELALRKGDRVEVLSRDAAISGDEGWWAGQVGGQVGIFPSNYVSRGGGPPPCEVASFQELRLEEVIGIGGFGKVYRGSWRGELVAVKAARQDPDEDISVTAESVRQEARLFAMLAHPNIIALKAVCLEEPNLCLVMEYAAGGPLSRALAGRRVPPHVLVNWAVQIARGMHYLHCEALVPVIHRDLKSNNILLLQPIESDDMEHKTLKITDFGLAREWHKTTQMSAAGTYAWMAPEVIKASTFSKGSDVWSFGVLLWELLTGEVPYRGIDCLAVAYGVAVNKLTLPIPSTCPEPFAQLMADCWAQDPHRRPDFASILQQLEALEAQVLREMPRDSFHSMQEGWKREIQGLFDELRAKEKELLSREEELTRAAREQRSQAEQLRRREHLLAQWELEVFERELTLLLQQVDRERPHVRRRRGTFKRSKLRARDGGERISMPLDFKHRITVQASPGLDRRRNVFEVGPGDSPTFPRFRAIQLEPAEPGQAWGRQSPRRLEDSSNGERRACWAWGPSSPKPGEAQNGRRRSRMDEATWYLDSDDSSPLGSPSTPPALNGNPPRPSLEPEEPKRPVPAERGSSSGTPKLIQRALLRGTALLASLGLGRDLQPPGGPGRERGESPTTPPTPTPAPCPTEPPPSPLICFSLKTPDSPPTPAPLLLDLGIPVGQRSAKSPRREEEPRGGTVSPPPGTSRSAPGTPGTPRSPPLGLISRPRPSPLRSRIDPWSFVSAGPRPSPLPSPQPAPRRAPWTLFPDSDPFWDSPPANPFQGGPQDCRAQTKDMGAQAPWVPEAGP

## C=CC(=O)Nc1cc(-c2cc(-c3cc4c([nH]3)CCNC4=O)ccn2)ccc1OC(F)(F)F [compound 11]
[1]; 10 nM
  inhibition at 0.01 µM: 0%
[1]; 100 nM
  inhibition at 0.1 µM: 0%
[1]; 1000 nM
  inhibition at 1 µM: 3%
[2]; 10 nM
  inhibition at 0.01 µM: -4%
[2]; 100 nM
  inhibition at 0.1 µM: 17%
[2]; 1000 nM
  inhibition at 1 µM: 74%
[3]; 10 nM
  inhibition at 0.01 µM: 7%
[3]; 100 nM
  inhibition at 0.1 µM: 9%
[3]; 1000 nM
  inhibition at 1 µM: 5%
[4]; 10 nM
  inhibition at 0.01 µM: 8%
[4]; 100 nM
  inhibition at 0.1 µM: 11%
[4]; 1000 nM
  inhibition at 1 µM: 17%
[5]; 10 nM
  inhibition at 0.01 µM: -4%
[5]; 100 nM
  inhibition at 0.1 µM: -7%
[5]; 1000 nM
  inhibition at 1 µM: -3%
[6]; 10 nM
  inhibition at 0.01 µM: -6%
[6]; 100 nM
  inhibition at 0.1 µM: -4%
[6]; 1000 nM
  inhibition at 1 µM: -1%
[7]; 10 nM
  inhibition at 0.01 µM: -1%
[7]; 100 nM
  inhibition at 0.1 µM: 1%
[7]; 1000 nM
  inhibition at 1 µM: 5%
[8]; 10 nM
  inhibition at 0.01 µM: -3%
[8]; 100 nM
  inhibition at 0.1 µM: 0%
[8]; 1000 nM
  inhibition at 1 µM: -6%
[9]; 10 nM
  inhibition at 0.01 µM: -7%
[9]; 100 nM
  inhibition at 0.1 µM: -5%
[9]; 1000 nM
  inhibition at 1 µM: 12%
[10]; 10 nM
  inhibition at 0.01 µM: -2%
[10]; 100 nM
  inhibition at 0.1 µM: 8%
[10]; 1000 nM
  inhibition at 1 µM: 43%
